One assay relates to NCI-H929. The assay is described as follows: Inhibition of cell proliferation (CellTiter-Glo or InCell analyzer), NCI-H929. The conditions noted are these: Homo sapiens, 72 h / 3 days, values given as IC50 category. It is filed as cell-based. The method, then:
(§1) Cell proliferation was measured by either CellTiter-Glo (measures cellular ATP level as a surrogate for total cell number) or by InCell analyzer (counts number of nuclei as a measure of cell number).
(§2) For CellTiter-Glo assay, exponentially growing cell lines of different tumor origins, cultured in appropriate media containing 10% fetal bovine serum at 37° C. in a 5% CO2 incubator, were plated at low density (less than 2000cells/well) in 96-well plates. Twenty four hours post-plating, cells were treated with different concentrations of test compounds ranging from 30 uM to 1.5 nM. Several wells were left untreated as a control. Seventy two hours post-treatment, cell numbers were determined using 50-100 ul per well of CellTiter-Glo (Promega #G7573). Plates were incubated at 37° C. for 30 minutes and the chemiluminescent signal was read on the Victor V or Envison 2100 reader.
(§3) For InCell Analyser assay, various cell lines of different tumor origins were grown to 70-80% confluency in appropriate culture media containing 10% fetal bovine serum at 37° C. in a 5% CO2 incubator. On day −1, cells were seeded at 2 densities in 384-well plates and incubated at 37° C. overnight. Stock compound plates were prepared in advance which contained dimethyl sulfoxide (DMSO) alone and a 9-point half-log decreasing dose range of the compound in DMSO. The compound plates were stored at −80° C. and each plate was only thawed once and used. On day 0, the main assay plates received compound or DMSO via a sonic delivery system (ECHO). The highest final concentration of compound of the dose range in the culture plates was 10 uM. These plates were cultured at 37° C. for 3 days. […] On day 3, the compound treated plates were stained and fixed to measure proliferation, apoptosis, and mitotic index using an InCelL1000 analyser. A nuclear stain was used to identify cells in the wells. By counting the number of nuclei, the proliferation index of compound treated groups were calculated as a percentage relative to the DMSO control, which was set to 100%. The IC50 values were calculated using model 205 in ExcelFit.
(§4) IC50 (nM) values for compounds of select examples were categorized by relative inhibition of cell proliferation.
(In general: In ATP-based viability assays light output follows the ATP content of the culture.)

For the next assay, the system named is Colo205. The assay is described as follows: Inhibition of cell proliferation (CellTiter-Glo or InCell analyzer), Colo205. In kind it is cell-based. The note with it: Homo sapiens, COLO 205, 72 h / 3 days, values given as IC50 category. The method, then: as §1, §2, §3, §4
The target of a further assay is T1, human IR (hIR) (Homo sapiens, UniProt P06213).
T1 construct: containing amino acid residues 979-1382 of human IR; made in house; host or cells: Sf9 cells (baculovirus), same process as hIGF1R
The assay is described as follows: TR-FRET kinase assay of purified hIR. In kind it is biochemical. The note with it: activated hIR 0.5 nM, 10 μM ATP, values given as pIC50 category.

Assay [1] addresses T2, NIH-3T3 cells overexpressing human IGF-1R (Homo sapiens, UniProt P08069).
T2 construct: expressed in transfected cells; host or cells: NIH-3T3 (mouse fibroblasts)
The assay is described as follows: IGF-1R cellular autophosphorylation (DELFIA). It is filed as cell-based. A digest of the protocol:
(§5)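 Receptor autophosphorylation measured by DELFIA, capturing IGF-1R or IRβ and detecting with europium anti-pTyr, reported as percent of IGF-1- or insulin-stimulated signal. Compounds (30 uM to 1.5 nM) added 2 h before ligand, then 15 min stimulation (IGF-1 30 ng/ml or insulin 3 ug/ml).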

The target in assay [2] is T3, NIH-3T3 cells overexpressing human IR (Homo sapiens, UniProt P06213).
T3 construct: expressed in transfected cells; host or cells: NIH-3T3 (mouse fibroblasts)
Nature of the assay: IR cellular autophosphorylation (DELFIA). In kind it is cell-based. The note with it: 2 h compound, insulin 3 ug/ml for 15 minutes, IC50 category. A digest of the protocol:
as §5

The next assay deals with T4, human IGF1R (hIGF1R) (Homo sapiens, UniProt P08069).
T4 construct: containing amino acid residues 957-1367 of human IGF1R; made in house; host or cells: Sf9 cells (baculovirus)
The assay is described as follows: TR-FRET kinase assay of purified hIGF1R. In kind it is biochemical. The note with it: activated hIGF1R 0.5 nM, 10 μM ATP, values given as pIC50 category, read-out: IGF-1R pIC50 (converted). For orientation: Time-resolved FRET reads energy transfer from a long-lived donor to a nearby acceptor.

The next assay concerns the target ALK (Homo sapiens, UniProt Q9UM73). Nature of the assay: ALK enzyme assay (HTRF). The note with it: 0.25 nM ALK, 15.0 μM ATP, values given as pIC50 category. It is filed as biochemical. A digest of the protocol: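 Isolated ALK phosphorylates a biotinylated tyrosine peptide, 120 min at 20° C; anti-phosphotyrosine Eu-cryptate/streptavidin-XL665 HTRF read after 60 min with EDTA-containing detection mix.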

As usually defined, the pIC50 is −log10 of the IC50, conventionally taken in molar units. Higher therefore signals a low IC50.

The structures appear in SMILES notation. pIC50: −log10 of the molar value. Where “and” joins values, the source holds several entries; their conditions need not be identical. Equal entries are not always repeated. Where only a bound is given, the exact number is not on record here.

T4 sequence (P08069 957-1367): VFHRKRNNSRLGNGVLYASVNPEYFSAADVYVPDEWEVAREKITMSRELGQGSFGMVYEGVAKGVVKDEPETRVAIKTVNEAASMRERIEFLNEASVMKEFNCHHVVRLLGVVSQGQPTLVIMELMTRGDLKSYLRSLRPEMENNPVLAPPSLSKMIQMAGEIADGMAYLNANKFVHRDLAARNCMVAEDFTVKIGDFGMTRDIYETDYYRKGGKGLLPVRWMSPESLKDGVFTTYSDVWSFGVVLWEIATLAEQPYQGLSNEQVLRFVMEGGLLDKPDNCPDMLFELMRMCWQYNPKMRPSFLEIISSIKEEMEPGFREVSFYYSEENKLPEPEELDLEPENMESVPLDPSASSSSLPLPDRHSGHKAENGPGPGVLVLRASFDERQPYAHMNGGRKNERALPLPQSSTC
T2 sequence (P08069 31-1367): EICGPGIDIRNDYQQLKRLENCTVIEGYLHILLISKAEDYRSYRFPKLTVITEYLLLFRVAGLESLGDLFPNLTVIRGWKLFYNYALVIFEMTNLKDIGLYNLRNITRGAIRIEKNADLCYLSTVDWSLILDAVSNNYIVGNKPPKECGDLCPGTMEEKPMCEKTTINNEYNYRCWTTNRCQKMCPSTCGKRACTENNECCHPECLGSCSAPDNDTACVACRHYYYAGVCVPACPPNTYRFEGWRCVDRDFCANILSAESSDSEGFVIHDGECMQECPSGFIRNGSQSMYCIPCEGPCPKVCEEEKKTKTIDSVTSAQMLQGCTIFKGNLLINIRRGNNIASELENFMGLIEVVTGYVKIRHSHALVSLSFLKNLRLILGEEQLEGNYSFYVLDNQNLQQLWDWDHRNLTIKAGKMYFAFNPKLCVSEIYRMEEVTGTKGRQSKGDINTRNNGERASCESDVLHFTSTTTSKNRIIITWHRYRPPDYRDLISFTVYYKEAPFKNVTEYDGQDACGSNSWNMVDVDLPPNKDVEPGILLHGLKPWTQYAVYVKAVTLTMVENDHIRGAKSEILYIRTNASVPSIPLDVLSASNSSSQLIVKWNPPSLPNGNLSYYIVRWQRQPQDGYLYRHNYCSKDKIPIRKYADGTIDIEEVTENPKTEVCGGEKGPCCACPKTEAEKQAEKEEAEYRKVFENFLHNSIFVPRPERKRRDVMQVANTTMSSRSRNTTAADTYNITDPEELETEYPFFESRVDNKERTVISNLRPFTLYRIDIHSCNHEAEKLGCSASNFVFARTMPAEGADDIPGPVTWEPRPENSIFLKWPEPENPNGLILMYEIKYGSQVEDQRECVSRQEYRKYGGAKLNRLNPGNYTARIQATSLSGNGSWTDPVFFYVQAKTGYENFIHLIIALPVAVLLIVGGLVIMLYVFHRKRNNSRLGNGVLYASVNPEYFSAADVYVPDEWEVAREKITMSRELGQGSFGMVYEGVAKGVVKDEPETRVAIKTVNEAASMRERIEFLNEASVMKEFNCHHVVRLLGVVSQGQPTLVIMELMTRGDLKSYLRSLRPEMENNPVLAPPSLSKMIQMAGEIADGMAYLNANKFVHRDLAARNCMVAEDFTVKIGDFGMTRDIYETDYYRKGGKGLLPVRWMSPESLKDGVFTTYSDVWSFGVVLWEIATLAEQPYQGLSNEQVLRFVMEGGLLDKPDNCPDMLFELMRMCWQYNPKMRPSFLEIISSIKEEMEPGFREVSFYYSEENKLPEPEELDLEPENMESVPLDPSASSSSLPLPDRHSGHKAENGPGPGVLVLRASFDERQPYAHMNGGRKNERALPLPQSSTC
Chain of ALK (Q9UM73 19-1620): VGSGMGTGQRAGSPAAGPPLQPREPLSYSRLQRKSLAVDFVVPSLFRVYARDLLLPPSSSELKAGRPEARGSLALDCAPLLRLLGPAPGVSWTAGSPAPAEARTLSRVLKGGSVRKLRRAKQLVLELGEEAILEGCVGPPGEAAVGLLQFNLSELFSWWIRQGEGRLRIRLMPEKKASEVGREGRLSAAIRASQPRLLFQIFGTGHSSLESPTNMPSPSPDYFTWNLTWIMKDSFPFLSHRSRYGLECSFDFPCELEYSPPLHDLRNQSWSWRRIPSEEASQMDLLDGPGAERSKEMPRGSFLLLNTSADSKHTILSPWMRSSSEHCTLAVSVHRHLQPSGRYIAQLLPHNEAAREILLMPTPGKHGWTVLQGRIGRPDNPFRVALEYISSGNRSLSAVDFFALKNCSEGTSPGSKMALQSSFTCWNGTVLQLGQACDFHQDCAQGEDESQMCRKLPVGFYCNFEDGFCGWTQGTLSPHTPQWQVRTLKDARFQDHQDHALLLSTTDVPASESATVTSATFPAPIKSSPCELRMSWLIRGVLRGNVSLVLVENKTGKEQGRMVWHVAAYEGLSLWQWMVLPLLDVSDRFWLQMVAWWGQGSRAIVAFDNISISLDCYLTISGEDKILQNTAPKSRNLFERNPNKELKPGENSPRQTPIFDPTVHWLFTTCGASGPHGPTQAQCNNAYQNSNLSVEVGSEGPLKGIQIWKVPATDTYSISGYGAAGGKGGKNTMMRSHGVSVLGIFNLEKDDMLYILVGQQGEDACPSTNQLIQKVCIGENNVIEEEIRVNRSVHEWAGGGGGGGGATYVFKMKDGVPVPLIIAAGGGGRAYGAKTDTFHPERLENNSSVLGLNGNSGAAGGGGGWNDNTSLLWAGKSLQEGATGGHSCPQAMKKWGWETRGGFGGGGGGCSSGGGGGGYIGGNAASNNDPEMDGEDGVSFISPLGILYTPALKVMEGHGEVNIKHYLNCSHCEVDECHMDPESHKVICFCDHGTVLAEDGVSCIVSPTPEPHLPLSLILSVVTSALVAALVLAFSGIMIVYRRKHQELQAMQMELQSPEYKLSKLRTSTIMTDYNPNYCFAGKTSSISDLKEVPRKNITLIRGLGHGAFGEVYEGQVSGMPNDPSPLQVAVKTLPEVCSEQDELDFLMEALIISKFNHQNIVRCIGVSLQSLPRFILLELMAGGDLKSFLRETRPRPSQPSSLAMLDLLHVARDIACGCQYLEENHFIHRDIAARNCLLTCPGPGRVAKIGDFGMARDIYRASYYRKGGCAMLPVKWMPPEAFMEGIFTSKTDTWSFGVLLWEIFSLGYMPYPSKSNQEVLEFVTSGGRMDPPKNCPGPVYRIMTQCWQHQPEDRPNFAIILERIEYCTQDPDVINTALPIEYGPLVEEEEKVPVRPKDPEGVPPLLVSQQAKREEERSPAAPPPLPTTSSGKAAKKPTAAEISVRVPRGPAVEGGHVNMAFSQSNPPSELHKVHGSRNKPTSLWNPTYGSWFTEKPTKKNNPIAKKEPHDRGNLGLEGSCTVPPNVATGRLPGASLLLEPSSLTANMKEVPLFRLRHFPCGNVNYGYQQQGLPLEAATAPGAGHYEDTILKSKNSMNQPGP
T1 sequence (P06213 979-1382): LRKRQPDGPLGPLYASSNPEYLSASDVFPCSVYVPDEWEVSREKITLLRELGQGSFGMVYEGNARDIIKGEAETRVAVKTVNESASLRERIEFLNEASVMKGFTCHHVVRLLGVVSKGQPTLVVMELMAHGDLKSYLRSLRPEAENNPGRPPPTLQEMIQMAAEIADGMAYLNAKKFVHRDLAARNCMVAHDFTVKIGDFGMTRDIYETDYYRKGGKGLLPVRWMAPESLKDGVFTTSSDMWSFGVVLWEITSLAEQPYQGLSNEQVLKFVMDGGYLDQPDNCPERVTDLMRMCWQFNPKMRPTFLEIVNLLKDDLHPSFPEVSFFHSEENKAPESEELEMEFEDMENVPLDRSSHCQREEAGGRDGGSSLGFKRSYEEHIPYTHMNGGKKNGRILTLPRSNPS
T3 sequence (P06213 28-1382): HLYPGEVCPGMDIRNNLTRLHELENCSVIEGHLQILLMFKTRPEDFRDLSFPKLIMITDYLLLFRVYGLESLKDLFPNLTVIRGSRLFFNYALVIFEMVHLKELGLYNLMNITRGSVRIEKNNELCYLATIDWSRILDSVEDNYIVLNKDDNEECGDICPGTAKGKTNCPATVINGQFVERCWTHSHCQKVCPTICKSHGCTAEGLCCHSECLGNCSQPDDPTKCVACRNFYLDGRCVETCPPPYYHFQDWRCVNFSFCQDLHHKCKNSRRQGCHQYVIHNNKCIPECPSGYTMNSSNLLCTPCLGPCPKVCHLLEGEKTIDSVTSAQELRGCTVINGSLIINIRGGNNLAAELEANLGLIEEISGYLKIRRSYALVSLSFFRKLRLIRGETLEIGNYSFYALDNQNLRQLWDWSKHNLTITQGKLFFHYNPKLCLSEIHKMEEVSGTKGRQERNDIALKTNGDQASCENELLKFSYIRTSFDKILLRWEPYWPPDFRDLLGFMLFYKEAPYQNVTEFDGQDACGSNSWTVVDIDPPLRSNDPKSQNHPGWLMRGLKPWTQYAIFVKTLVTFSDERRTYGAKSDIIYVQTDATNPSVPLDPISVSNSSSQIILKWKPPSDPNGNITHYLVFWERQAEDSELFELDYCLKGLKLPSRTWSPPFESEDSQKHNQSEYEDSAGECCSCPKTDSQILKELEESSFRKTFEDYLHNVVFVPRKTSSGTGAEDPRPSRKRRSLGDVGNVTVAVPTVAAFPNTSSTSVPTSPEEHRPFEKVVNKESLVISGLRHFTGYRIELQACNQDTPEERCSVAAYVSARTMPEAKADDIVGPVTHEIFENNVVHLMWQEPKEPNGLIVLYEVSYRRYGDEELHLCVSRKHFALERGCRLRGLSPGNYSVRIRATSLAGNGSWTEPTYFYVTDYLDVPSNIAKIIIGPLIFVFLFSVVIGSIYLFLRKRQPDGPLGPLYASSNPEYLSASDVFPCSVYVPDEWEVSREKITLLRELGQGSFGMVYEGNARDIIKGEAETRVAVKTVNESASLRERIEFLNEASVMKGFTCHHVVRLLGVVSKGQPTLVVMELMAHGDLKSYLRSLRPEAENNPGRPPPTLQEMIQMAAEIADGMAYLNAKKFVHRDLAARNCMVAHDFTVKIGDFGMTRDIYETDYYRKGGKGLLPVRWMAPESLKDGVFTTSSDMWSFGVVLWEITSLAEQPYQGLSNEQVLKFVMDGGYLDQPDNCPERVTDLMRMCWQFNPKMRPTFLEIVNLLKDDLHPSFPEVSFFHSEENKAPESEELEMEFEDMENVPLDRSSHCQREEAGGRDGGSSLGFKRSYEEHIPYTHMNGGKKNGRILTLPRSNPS

In the case of `CCCN1CCC(c2ccc(Nc3nc(Nc4cccc(F)c4C(N)=O)c4cc[nH]c4n3)c(OC)c2)CC1` [Example 42, 2-fluoro-6-[(2-{[2-(methyloxy)-4-(1-propyl-4-piperidinyl)phenyl]amino}-1H-pyrrolo[2,3-d]pyrimidin-4-yl)amino]benzamide], the pIC50 is > 6.60 in the assay on NCI-H929; > 6.60 with Colo205; 9.00 to 9.60 at human IR (hIR); 6.30 to 7.00 in assay [1]; 6.30 to 7.00 in assay [2]. For the same compound, the IC50 at human IGF1R (hIGF1R) was 0.251 to 1 nM.

With `COc1cc(N2CCC(N3CCCCC3)CC2)ccc1Nc1nc(Nc2cccc(F)c2C(N)=O)c2cc[nH]c2n1` [Example 45, 2-[(2-{[4-(1,4′-bipiperidin-1′-yl)-2-(methyloxy)phenyl]amino}-1H-pyrrolo[2,3-d]pyrimidin-4-yl)amino]-6-fluorobenzamide], the pIC50 is > 6.60 in the assay on NCI-H929; 6.00 to 6.60 in the assay with Colo205; 8.40 to 8.90 against human IR (hIR); 6.30 to 7.00 in assay [1]; 6.30 to 7.00 in assay [2]. Besides, the IC50 on human IGF1R (hIGF1R) is 1.26 to 3.98 nM.

Turning to `COc1c(Nc2nc(Nc3cccc(F)c3C(N)=O)c3cc[nH]c3n2)ccc(N2CCN(C(C)C)CC2)c1C` [Example 50, 2-fluoro-6-[(2-{[3-methyl-4-[4-(1-methylethyl)-1-piperazinyl]-2-(methyloxy)phenyl]amino}-1 H-pyrrolo[2,3-d]pyrimidin-4-yl)amino]benzamide], the pIC50 in the assay on NCI-H929 is 6.00 to 6.60; in the assay on Colo205, < 6.00; in assay [1] it was < 6.30; in assay [2], < 6.30; on ALK, 8.40 to 8.90.

Consider `COc1cc2c(cc1Nc1nc(Nc3ccc(F)c(F)c3C(=O)NC(C)C)c3cc[nH]c3n1)N(C(=O)CN(C)C)CCC2` [Example 164, 6-[(2-{[1-(N,N-dimethylglycyl)-6-(methyloxy)-1,2,3,4-tetrahydro-7-quinolinyl]amino}-1H-pyrrolo[2,3-d]pyrimidin-4-yl)amino]-2,3-difluoro-N-(1-methylethyl)benzamide], for which the pIC50 was 6.00 to 6.60 in the assay on NCI-H929, < 6.00 in the assay on Colo205, 6.80 to 8.30 against human IR (hIR) and 8.40 to 8.90 at ALK. The IC50 at human IGF1R (hIGF1R) is 5.01 to 200 nM.

Regarding `COc1cc2c(cc1Nc1nc(Nc3cc(Cl)cc(F)c3C(N)=O)c3cc[nH]c3n1)N(C(=O)CN1CCCC1)CCC2` [Example 173, 4-chloro-2-fluoro-6-[(2-{[6-(methyloxy)-1-(1-pyrrolidinylacetyl)-1,2,3,4-tetrahydro-7-quinolinyl]amino}-1H-pyrrolo[2,3-d]pyrimidin-4-yl)amino]benzamide], the pIC50 in the assay on NCI-H929 is > 6.60; in the assay on Colo205 it was 6.00 to 6.60; in assay [1] it was > 7.00; in assay [2] it was 6.30 to 7.00; against ALK, 9.00 to 9.60.

`CNC(=O)c1c(F)cccc1Nc1nc(Nc2cc3c(cc2OC)CCN3C(=O)[C@H](C)N(C)C)nc2[nH]ccc12` [Example 194, 2-[(2-{[1-(N,N-dimethyl-L-alanyl)-5-(methyloxy)-2,3-dihydro-1H-indol-6-yl]amino}-1H-pyrrolo[2,3-d]pyrimidin-4-yl)amino]-6-fluoro-N-methylbenzamide]: the pIC50 is > 6.60 in the assay on NCI-H929, > 6.60 with Colo205, 8.40 to 8.90 against human IR (hIR) and 9.00 to 9.60 against ALK. Also, the IC50 on human IGF1R (hIGF1R) is 1.26 to 3.98 nM.

Turning to `CNC(=O)c1c(F)cccc1Nc1nc(Nc2cc3c(cc2OC)CCN3C(=O)[C@@H](C)N(C)C)nc2[nH]ccc12` [Example 195, 2-[(2-{[1-(N,N-dimethyl-D-alanyl)-5-(methyloxy)-2,3-dihydro-1H-indol-6-yl]amino}-1H-pyrrolo[2,3-d]pyrimidin-4-yl)amino]-6-fluoro-N-methylbenzamide], the pIC50 with NCI-H929 was 6.00 to 6.60; in the assay on Colo205, 6.00 to 6.60; against human IR (hIR) it was 8.40 to 8.90; against ALK, 8.40 to 8.90. At human IGF1R (hIGF1R), the IC50 is 1.26 to 3.98 nM.

Regarding `COc1cc2ccn(CC(=O)N(C)C)c2cc1Nc1nc(Nc2cccc(F)c2C(N)=O)c2cc[nH]c2n1` [Example 196, 2-[(2-{[1-[2-(dimethylamino)-2-oxoethyl]-5-(methyloxy)-1H-indol-6-yl]amino}-1H-pyrrolo[2,3-d]pyrimidin-4-yl)amino]-6-fluorobenzamide], the pIC50 was < 6.00 in the assay with NCI-H929, < 6.30 in assay [1], < 6.30 in assay [2] and 6.70 to 8.30 at ALK. For the same compound, on human IGF1R (hIGF1R), the IC50 was 5.01 to 200 nM.

With `COc1cc2c(cc1Nc1nc(Nc3cccc(F)c3C(N)=O)c3cc[nH]c3n1)N(C(=O)CN1CCCC1)CCC2(C)C` [Example 223, 2-[(2-{[4,4-dimethyl-6-(methyloxy)-1-(1-pyrrolidinylacetyl)-1,2,3,4-tetrahydro-7-quinolinyl]amino}-1H-pyrrolo[2,3-d]pyrimidin-4-yl)amino]-6-fluorobenzamide], the pIC50 in the assay on NCI-H929 was > 6.60; in the assay with Colo205, > 6.60; against human IR (hIR), 9.00 to 9.60; against ALK it was 9.00 to 9.60. Also, the IC50 at human IGF1R (hIGF1R) was 0.251 to 1 nM.

With `CNC(=O)c1c(F)cccc1Nc1nc(Nc2cc3c(cc2OC)C(C)(C)CCN3C(=O)CN2CCCC2)nc2[nH]ccc12` [Example 224, 2-[(2-{[4,4-dimethyl-6-(methyloxy)-1-(1-pyrrolidinylacetyl)-1,2,3,4-tetrahydro-7-quinolinyl]amino}-1H-pyrrolo[2,3-d]pyrimidin-4-yl)amino]-6-fluoro-N-methylbenzamide], the pIC50 is > 6.60 in the assay on NCI-H929; 6.00 to 6.60 in the assay on Colo205; 9.00 to 9.60 against human IR (hIR); 8.40 to 8.90 and 9.00 to 9.60 on ALK. The IC50 at human IGF1R (hIGF1R) is 0.251 to 1 nM.

In the case of `COc1cc2c(cc1Nc1nc(Nc3cccc(F)c3C(N)=O)c3cc[nH]c3n1)N(C(=O)CN(C)C)CCC2(C)C` [Example 225, 2-[(2-{[1-(N,N-dimethylglycyl)-4,4-dimethyl-6-(methyloxy)-1,2,3,4-tetrahydro-7-quinolinyl]amino}-1H-pyrrolo[2,3-d]pyrimidin-4-yl)amino]-6-fluorobenzamide], the pIC50 in the assay on NCI-H929 was > 6.60; in the assay on Colo205, > 6.60; against human IR (hIR) it was 9.00 to 9.60; against ALK it was 9.00 to 9.60. At human IGF1R (hIGF1R), the IC50 was 0.251 to 1 nM.

Regarding `COc1cc2c(cc1Nc1nc(Nc3cccc(F)c3C(N)=O)c3cc[nH]c3n1)NC(=O)CC2(C)C` [Example 227, 2-[(2-{[4,4-dimethyl-6-(methyloxy)-2-oxo-1,2,3,4-tetrahydro-7-quinolinyl]amino}-1H-pyrrolo[2,3-d]pyrimidin-4-yl)amino]-6-fluorobenzamide], the pIC50 in the assay on NCI-H929 is 6.00 to 6.60; in the assay with Colo205 it was 6.00 to 6.60; against human IR (hIR) it was 9.00 to 9.60; against ALK it was 8.40 to 8.90. At human IGF1R (hIGF1R), the IC50 is 1.26 to 3.98 nM.

In the case of `CNC(=O)c1c(F)cccc1Nc1nc(Nc2cc3c(cc2OC)C(C)(C)CC(=O)N3)nc2[nH]ccc12` [Example 228, 2-[(2-{[4,4-dimethyl-6-(methyloxy)-2-oxo-1,2,3,4-tetrahydro-7-quinolinyl]amino}-1H-pyrrolo[2,3-d]pyrimidin-4-yl)amino]-6-fluoro-N-methylbenzamide], the pIC50 was 6.00 to 6.60 in the assay with NCI-H929, < 6.00 with Colo205, 8.40 to 8.90 on human IR (hIR) and 8.40 to 8.90 against ALK. The IC50 at human IGF1R (hIGF1R) was 1.26 to 3.98 nM.

Values taken from patent US7981903B2, “2-[2-{phenylamino}-1H-pyrrolo[2,3-D]pyrimidin-4-yl)amino] benzamide derivatives as IGF-1R inhibitors for the treatment of cancer” (GlaxoSmithKline LLC, priority 2007, dated 2011).
